Legend:
[1] = system: IgE; test: Determination of Igs produced in in vitro culture: inhibition of IgE secreted by spleen cells (adoptive secondary immune response to DNP-As), ELISA; assay type: cell-based, BALB/c mice; conditions: Mus musculus, 96 h, 4 days culture; for inhibition at 0.25 µg/mL: 0.25 μg/ml; for inhibition at 2.5 µg/mL: 2.5 μg/ml; for inhibition at 1 µg/mL: 1.0 μg/ml; for inhibition at 5 µg/mL: 5.0 μg/ml; for inhibition at 40 µg/mL: 40.0 μg/ml; for inhibition at 10 µg/mL: 10.0 μg/ml
Method: (§1) Determination of Igs produced in in vitro culture
(§2) BALB/c mice were immunized intraperitoneally with 5 μg of DNP-As adsorbed in 4 mg aluminum hydroxide gel. 4 weeks after the immunization, the spleens were excised from the mice and 5×10^7 spleen cells were transferred intravenously into the recipient mice which had been exposed to 600 rad of X-ray irradiation. Immediately after cell transfer, the recipients were then immunized intraperitoneally with 5 μg of DNP-As adsorbed in 4 mg aluminum hydroxide gel to induce adoptive secondary immune response. Further 4 weeks after the immunization of recipients, the spleens were excised from them and the spleen cell suspensions 5×10^6 cells/ml were cultured with or without a compound to be tested in 96-well micro plates at 37° C. for 4 days. IgE and IgG secreted into the culture supernatant was each determined correspondingly by ELISA and the inhibitory effect was calculated according to the following equation. [formula]

[2] = system: IgG; test: Determination of Igs produced in in vitro culture: inhibition of IgG secreted by spleen cells (adoptive secondary immune response to DNP-As), ELISA; assay type: cell-based, BALB/c mice; conditions: Mus musculus, 96 h, 4 days culture; for inhibition at 0.25 µg/mL: 0.25 μg/ml; for inhibition at 2.5 µg/mL: 2.5 μg/ml; for inhibition at 1 µg/mL: 1.0 μg/ml; for inhibition at 5 µg/mL: 5.0 μg/ml; for inhibition at 40 µg/mL: 40.0 μg/ml; for inhibition at 10 µg/mL: 10.0 μg/ml
Method: as §1, §2

Structure (SMILES): CCOc1ccc(COC(=O)c2c(SC)c(C#N)c(=O)n3ccccc23)cc1 [S-33, 4'-Ethoxybenzyl 3-cyano-2-methylthio-4H-quinolizin-4-one-1-carboxylate]
- inhibition at 20 µg/mL ([1]; 20.0 μg/ml): 81%
- inhibition at 20 µg/mL ([2]; 20.0 μg/ml): 47%

Structure (SMILES): CSc1c(C#N)c(=O)n2ccccc2c1C(=O)OC(C)c1ccc(Br)cc1 (centres unmarked) [S-30, 1'-(4-Bromophenyl)ethyl 3-cyano-2-methylthio-4H-quinolizin-4-one-1-carboxylate]
- inhibition at 0.25 µg/mL [1]: 45%
- inhibition at 0.25 µg/mL [2]: 27%

Structure (SMILES): CSc1c(C#N)c(=O)n2ccccc2c1C(=O)Nc1nc(-c2ccccc2)cs1 [S-75, 3-Cyano-2-methylthio-N-(4-phenyl-2-thiazolyl)-4H-quinolizin-4-one-1-carboxamide]
- inhibition at 2.5 µg/mL [1]: 50%
- inhibition at 2.5 µg/mL [2]: 25%

Structure (SMILES): CSc1c(C#N)c(=O)n2ccccc2c1C(=O)OCC(Cl)(Cl)Cl [S-4, 2',2',2'-Trichloroethyl 3-cyano-2-methylthio-4H-quinolizin-4-one-1-carboxylate]
- inhibition at 1 µg/mL [1]: 68%
- inhibition at 1 µg/mL [2]: 39%

Structure (SMILES): CSc1c(C#N)c(=O)n2ccccc2c1C(=O)CCCCc1ccccc1 [S-107, 3-Cyano-2-methylthio-1-(5-phenylvaleryl)-4H-quinolizin-4-one]
- inhibition at 1 µg/mL [1]: 80%
- inhibition at 1 µg/mL [2]: 43%

Structure (SMILES): CSc1c(C#N)c(=O)n2ccccc2c1C(=O)OCCCOc1ccccc1 [S-54, 3'-Phenoxypropyl 3-cyano-2-methylthio-4H-quinolizin-4-one-1-carboxylate]
- inhibition at 1 µg/mL [1]: 73%
- inhibition at 1 µg/mL [2]: 50%

Structure (SMILES): CSc1c(C#N)c(=O)n2ccccc2c1C(=O)OCc1ccccc1 [S-29, Benzyl 3-cyano-2-methylthio-4H-quinolizin-4-one-1-carboxylate]
- inhibition at 1 µg/mL [1]: 69%
- inhibition at 1 µg/mL [2]: 31%

Structure (SMILES): CSc1c(C#N)c(=O)n2ccccc2c1C(=O)Cc1cccc2ccccc12 [S-103, 3-Cyano-2-mehtylthio-1-(1-naphthylacetyl)-4H-quinolizin-4-one]
- inhibition at 2.5 µg/mL [1]: 49%
- inhibition at 2.5 µg/mL [2]: 15%

Structure (SMILES): CSc1c(C#N)c(=O)n2ccccc2c1C(=O)OC(C)C [S-8, Isopropyl 3-cyano-2-methylthio-4H-quinolizin-4-one-1-carboxylate]
- inhibition at 2.5 µg/mL [1]: 36%
- inhibition at 2.5 µg/mL [2]: 18%

Structure (SMILES): CSc1c(C#N)c(=O)n2ccccc2c1C(=O)OCC(c1ccccc1)c1ccccc1 [S-44, 2',2'-Diphenylethyl 3-cyano-2-methylthio-4H-quinolizin-4-one-1-carboxylate]
- inhibition at 1 µg/mL [1]: 54%
- inhibition at 1 µg/mL [2]: 18%

Structure (SMILES): CSc1c(C#N)c(=O)n2ccccc2c1C(=O)OCc1ccc(C)c(C)c1 [S-25, 3',4'-Dimethylbenzyl 3-cyano-2-methylthio-4H-quinolizin-4-one-1-carboxylate]
- inhibition at 5 µg/mL [1]: 75%
- inhibition at 5 µg/mL [2]: 54%

Structure (SMILES): N#Cc1c(SCc2ccccc2)c(C(=O)N2CCC(c3ccccc3)CC2)c2ccccn2c1=O (single isomer, unassigned) [S-83A, 2-Benzylthio-3-cyano-1-(4-phenylpiperidinocarbonyl)-4H-quinolizin-4-one]
- inhibition at 1 µg/mL [1]: 67%
- inhibition at 1 µg/mL [2]: 23%

Structure (SMILES): CCN(CC)C(=O)c1c(SC)c(C#N)c(=O)n2ccccc12 [S-62, 3-Cyano-N,N-diethyl-2-methylthio-4H-quinolizin-4-one-1-carboxamide]
- inhibition at 40 µg/mL [1]: 64%
- inhibition at 40 µg/mL [2]: 36%

Structure (SMILES): CSc1c(C#N)c(=O)n2ccccc2c1C(=O)OCc1ccc2c(c1)OCO2 [S-26, Piperonyl 3-cyano-2-methylthio-4H-quinolizin-4-one-1-carboxylate]
- inhibition at 40 µg/mL [1]: 48%
- inhibition at 40 µg/mL [2]: 17%

Structure (SMILES): CCOC(=O)c1c(SC(C)C)c(C#N)c(=O)n2ccccc12 [S-57, Ethyl 3-cyano-2-isopropylthio-4H-quinolizin-4-one-1-carboxylate]
- inhibition at 5 µg/mL [1]: 53%
- inhibition at 5 µg/mL [2]: 32%

Structure (SMILES): CSc1c(C#N)c(=O)n2ccccc2c1C(=O)OCc1cccc2ccccc12 [S-42, 1'-Naphthylmethyl 3-cyano-2-methylthio-4H-quinolizin-4-one-1-carboxylate]
- inhibition at 1 µg/mL [1]: 75%
- inhibition at 1 µg/mL [2]: 43%

Structure (SMILES): CSc1c(C#N)c(=O)n2ccc(C)cc2c1C(=O)OCCc1ccccc1 [S-50, 2'-Phenylethyl 3-cyano-8-methyl-2-methylthio-4H-quinolizin-4-one-1-carboxylate]
- inhibition at 1 µg/mL [1]: 64%
- inhibition at 1 µg/mL [2]: 42%

Structure (SMILES): COc1ccc(COC(=O)c2c(SC)c(C#N)c(=O)n3ccccc23)cc1 [S-31, 4'-Methoxybenzyl 3-cyano-2-methylthio-4H-quinolizin-4-one-1-carboxylate]
- inhibition at 40 µg/mL [1]: 34%
- inhibition at 40 µg/mL [2]: 3%

Structure (SMILES): CSc1c(C#N)c(=O)n2ccccc2c1C(=O)OC1CCC1 [S-13, Cyclobutyl 3-cyano-2-methylthio-4H-quinolizin-4-one-1-carboxylate]
- inhibition at 5 µg/mL [1]: 67%
- inhibition at 5 µg/mL [2]: 9%

Structure (SMILES): CSc1c(C#N)c(=O)n2ccccc2c1C(=O)CCc1ccccc1 [S-104, 3-Cyano-2-methylthio-1-(3-phenylpropionyl)-4H-quinolizin-4-one]
- inhibition at 2.5 µg/mL [1]: 66%
- inhibition at 2.5 µg/mL [2]: 39%

Structure (SMILES): CSc1c(C#N)c(=O)n2ccccc2c1C(=O)N(C1CCCCC1)C1CCCCC1 [S-61, 3-Cyano-N,N-dicyclohexyl-2-methylthio-4H-quinolizin-4-one-1-carboxamide]
- inhibition at 2.5 µg/mL [1]: 93%
- inhibition at 2.5 µg/mL [2]: 48%

Structure (SMILES): CSc1c(C#N)c(=O)n2ccccc2c1C(=O)OC1CCCCCC1 [S-19, Cycloheptyl 3-cyano-2-methylthio-4H-quinolizin-4-one-1-carboxylate]
- inhibition at 5 µg/mL [1]: 71%
- inhibition at 5 µg/mL [2]: 27%

Structure (SMILES): CSc1c(C#N)c(=O)n2ccccc2c1C(=O)CC1CCCCC1 [S-94, 3-Cyano-1-cyclohexylacetyl-2-methylthio-4H-quinolizin-4-one]
- inhibition at 1 µg/mL [1]: 62%
- inhibition at 1 µg/mL [2]: 33%

Structure (SMILES): CSc1c(C#N)c(=O)n2ccccc2c1C(=O)N1CCCC2CCCCC21 (centres unmarked) [S-86]
- inhibition at 2.5 µg/mL [1]: 46%
- inhibition at 2.5 µg/mL [2]: 21%

Structure (SMILES): CSc1c(C#N)c(=O)n2ccccc2c1C(=O)N1CCCCC1 [S-79, 3-Cyano-2-methylthio-1-piperidinocarbonyl-4H-quinolizin-4-one]
- inhibition at 40 µg/mL [1]: 59%
- inhibition at 40 µg/mL [2]: 13%

Structure (SMILES): CCCCOC(=O)c1c(SC)c(C#N)c(=O)n2ccccc12 [S-9, Butyl 3-cyano-2-methylthio-4H-quinolizin-4-one-1-carboxylate]
- inhibition at 2.5 µg/mL [1]: 54%
- inhibition at 2.5 µg/mL [2]: 17%

Structure (SMILES): COc1ccc(CC(=O)c2c(SC)c(C#N)c(=O)n3ccccc23)cc1 [S-102, 3-Cyano-1-(4-methoxyphenylacetyl)-2-methylthio-4H-quinolizin-4-one]
- inhibition at 10 µg/mL [1]: 52%
- inhibition at 10 µg/mL [2]: 20%

Structure (SMILES): CSc1c(C#N)c(=O)n2ccccc2c1C(=O)OC(C)Cc1ccccc1 (centres unmarked) [S-43, 1'-Methyl-2'-phenylethyl 3-cyano-2-methylthio-4H-quinolizin-4-one-1-carboxylate]
- inhibition at 1 µg/mL [1]: 75%
- inhibition at 1 µg/mL [2]: 46%

Structure (SMILES): CSc1c(C#N)c(=O)n2ccccc2c1C(=O)OCCSc1ccccc1 [S-55, 2'-Phenylthioethyl 3-cyano-2-methylthio-4H-quinolizin-4-one-1-carboxylate]
- inhibition at 0.25 µg/mL [1]: 51%
- inhibition at 0.25 µg/mL [2]: 29%

Structure (SMILES): N#Cc1c(SCc2ccccc2)c(C(=O)N2CCC(c3ccccc3)CC2)c2ccccn2c1=O (single isomer, unassigned) [S-83B, 2-Benzylthio-3-cyano-1-(4-phenylpiperidinocarbonyl)-4H-quinolizin-4-one]
- inhibition at 0.25 µg/mL [1]: 41%
- inhibition at 0.25 µg/mL [2]: 10%

Structure (SMILES): CSc1c(C#N)c(=O)n2ccccc2c1C(=O)OCc1ccc(-c2ccccc2)cc1 [S-40, 4'-phenylbenzyl 3-cyano-2-methylthio-4H-quinolizin-4-one-1-carboxylate]
- inhibition at 0.25 µg/mL [1]: 53%
- inhibition at 0.25 µg/mL [2]: 34%

Structure (SMILES): CCCC(=O)c1c(SC)c(C#N)c(=O)n2ccccc12 [S-93, 1-Butyryl-3-cyano-2-methylthio-4H-quinolizin-4-one]
- inhibition at 10 µg/mL [1]: 62%
- inhibition at 10 µg/mL [2]: 31%

Structure (SMILES): CSc1c(C#N)c(=O)n2ccccc2c1C(=O)N(CCNc1ccccc1)c1ccccc1 [S-67, 3-Cyano-2-methylthio-N-phenyl-N-(2-phenylaminoethyl)-4H-quinolizin-4-one-1-carboxamide]
- inhibition at 2.5 µg/mL [1]: 68%
- inhibition at 2.5 µg/mL [2]: 46%

Structure (SMILES): CSc1c(C#N)c(=O)n2ccccc2c1C(=O)N(C(C)C)C(C)C [S-63, 3-Cyano-N,N-diisopropyl-2-methylthio-4H-quinolizin-4-one-1-carboxamide]
- inhibition at 40 µg/mL [1]: 85%
- inhibition at 40 µg/mL [2]: 47%

Structure (SMILES): CSc1c(C#N)c(=O)n2ccccc2c1C(=O)N(Cc1ccccc1)Cc1ccccc1 [S-60, 3-Cyano-N,N-dibenzyl-2-methylthio-4H-quinolizin-4-one-1-carboxamide]
- inhibition at 1 µg/mL [1]: 58%
- inhibition at 1 µg/mL [2]: 25%

Structure (SMILES): N#Cc1c(SCc2ccccc2)c(C(=O)N2CCC(Cc3ccccc3)CC2)c2ccccn2c1=O (single isomer, unassigned) [S-84A, 1-(4-Benzylpiperidinocarbonyl)-2-benzylthio-3-cyano-4H-quinolizin-4-one]
- inhibition at 1 µg/mL [1]: 58%
- inhibition at 1 µg/mL [2]: 22%

Structure (SMILES): CSc1c(C#N)c(=O)n2ccccc2c1C(=O)N1CCC2CCCCC21 (single isomer, unassigned) [S-85B, 3-Cyano-2-methylthio-1-(perhydroindol-1-yl-carbonyl)-4H-quinolizin-4-one]
- inhibition at 2.5 µg/mL [1]: 39%
- inhibition at 2.5 µg/mL [2]: 19%

— US4877795A, “4H-quinolizin-4-one compounds useful for the treatment of allergic bronchial asthma, allergic rhinitis atropic dermatitis and the like” (Kissei Pharmaceutical Co., Ltd., priority 1987, dated 1989)
